The text below walks through data of ChEMBL document CHEMBL3779791, “Captopril analogues as metallo-β-lactamase inhibitors” (Bioorg Med Chem Lett, 2016).

Molecules are shown by their SMILES. The source made the active and inactive calls. The calls are words filed in the database; no cut-off is given here.

In this experiment the test system is Pseudomonas aeruginosa. The experiment in a line: Competitive inhibition of Pseudomonas aeruginosa 101/1477 metallo-beta-lactamase IMP-1 expressed in Escherichia coli BL21 (DE3) using benzylpenicillin as substrate by spectrophotometric analysis.
`O=C(O)[C@H]1CCCN1C(=O)CCS`: the Kic came out at 2.9 µM.
In turn, `O=C(O)COC[C@H]1CCCN1C(=O)CCCS` showed a Kic of 363 µM.
The compound `O=C(O)[C@H]1CCCN1C(=O)CS` returned a Kic of 2.3 µM.
For `O=C(O)CC(=O)N1CCC[C@H]1C(=O)O`, the Kic result was “inactive”.
With `CC(=O)SCC(=O)N1CCCCC1C(=O)O` (racemic), the Kic was determined as 24 µM.
With `O=C(O)CCCC(=O)N1CCC[C@@H]1C(=O)O`, the Kic entry is “inactive”.
As to `O=C(O)C1CCCCN1C(=O)CCS` (racemic), the Kic is 10 µM.
For `O=C(O)CC(=O)N1CCC[C@@H]1C(=O)O`, the Kic result is “inactive”.
Consider `O=C(O)[C@H]1CCCN1C(=O)CCCS`, for which the Kic was found to be 5.8 µM.
The same measure for `O=C(O)[C@@H]1CCCN1C(=O)CS`: 2.2 µM.
`O=C(O)[C@@H]1CCCN1C(=O)CCCS` had a Kic of 7.2 µM.
Then `O=C(O)[C@@H]1CCCN1C(=O)CCS`, with 9.9 µM; and `O=C(O)C1CCCCN1C(=O)CCCS` (racemic), with 7.1 µM; and `O=C(O)COC[C@H]1CCCN1C(=O)CCS`, with 390 µM.
In turn, `O=C(O)C1CCCCN1C(=O)CS` (racemic) returned a Kic of 3.4 µM.
In the case of `O=C(O)CCC(=O)N1CCC[C@@H]1C(=O)O`, the Kic result is “inactive”.
`O=C(O)CCC(=O)N1CCC[C@H]1C(=O)O`: the Kic entry was “inactive”.
For `O=C(O)CCCC(=O)N1CCC[C@H]1C(=O)O`, the Kic result was “inactive”.
Then `O=C(O)COC[C@H]1CCCN1C(=O)CS`, with 290 µM.
